Our source for the EC50 values is patent US10815222B2, “Compounds for use in the treatment of kinetoplastid infection” (C.N.C.C.S. S.c.a.r.l. COLLEZIONE NAZIONALE DEI COMPOSTI …, priority 2016, dated 2020).

Each structure is given as a SMILES string.

The test system of the test is Bloodstream form of Trypanosoma brucei, strain Lister 427. Put plainly: Trypanosoma brucei growth inhibition assay (CellTiter-Glo, 24 h). The class given is cell-based. Conditions: Trypanosoma brucei; T. Brucei Growth Inibition Assay, class symbols; read-out: T. Brucei GI EC50. Summed up:
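Bloodstream-form T. brucei Lister 427, 1500 parasites per well in supplemented IMDM with 10% FBS, were exposed to compound (DMSO ≤0.25% final) for 24 h at 37 °C. Viability was measured by CellTiter-Glo luminescence.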
(Cellular ATP, detected with luciferase, serves as a proxy for viable cell number.)
A word on the EC50: it is the concentration that produces a half-maximal response. Consider `COc1ccc2nc(C(F)(F)F)n(CC(=O)N3CCN(C4CCOC4)CCC3c3ncc(-c4cc5ccccc5nc4OC)[nH]3)c2c1` (centres unmarked) [2-(6-methoxy-2-(trifluoromethyl)-1H-benzo[d]imidazol-1-yl)-1-(7-(5-(2-methoxyquinolin-3-yl)-1H-imidazol-2-yl)-4-(tetrahydrofuran-3-yl)-1,4-diazepan-1-yl)ethan-1-one], for which the EC50 was under 100 nM.

`COc1ccc2nc(C(F)(F)F)n(CC(=O)N3CC[C@H](N4CCCC4)C[C@H]3c3ncc(-c4cc5ccccc5nc4OC)[nH]3)c2c1` [2-(6-methoxy-2-(trifluoromethyl)-1H-benzo[d]imidazol-1-yl)-1-((2S,4S)-2-(5-(2-methoxyquinolin-3-yl)-1H-imidazol-2-yl)-4-(pyrrolidin-1-yl)piperidin-1-yl)ethan-1-one]: the 50% effective concentration (EC50) is under 100 nM.

As for `COc1ccc2nc(C(F)(F)F)n(CC(=O)N3CCN(Cc4ccccn4)CCC3c3ncc(-c4cc5ccccc5nc4OC)[nH]3)c2c1` (centres unmarked) [2-(6-methoxy-2-(trifluoromethyl)-1H-benzo[d]imidazol-1-yl)-1-(7-(5-(2-methoxyquinolin-3-yl)-1H-imidazol-2-yl)-4-(pyridin-2-ylmethyl)-1,4-diazepan-1-yl)ethan-1-one], the concentration for a half-maximal effect (EC50) is under 100 nM.

With `COc1ccc2nc(C(F)(F)F)n(CC(=O)N3CC[C@H](NCC4COC4)C[C@H]3c3ncc(-c4cc5ccccc5nc4OC)[nH]3)c2c1` [2-(6-methoxy-2-(trifluoromethyl)-1H-benzo[d]imidazol-1-yl)-1-((2S,4S)-2-(5-(2-methoxyquinolin-3-yl)-1H-imidazol-2-yl)-4-((oxetan-3-ylmethyl)amino)piperidin-1-yl)ethan-1-one], the EC50 is under 100 nM.

Regarding `COc1ccc2nc(C(F)(F)F)n(CC(=O)N3CCN(Cc4cscn4)C[C@H]3c3ncc(-c4cc5ccccc5nc4OC)[nH]3)c2c1` [(S)-2-(6-methoxy-2-(trifluoromethyl)-1H-benzo[d]imidazol-1-yl)-1-(2-(5-(2-methoxyquinolin-3-yl)-1H-imidazol-2-yl)-4-(thiazol-4-ylmethyl)piperazin-1-yl)ethan-1-one], the EC50 is under 100 nM.

Take `O=C(Cc1nc2ccccc2o1)N1CCN(CC2CCOC2)CC1c1ncc(-c2ccc3ccccc3c2)[nH]1` (centres unmarked): the 50% effective concentration (EC50) fell in the range of 510 to 1000 nM.

`COc1ccc2nc(C(F)(F)F)n(CC(=O)N3CCN(Cc4cnccn4)CCC3c3ncc(-c4cc5ccccc5nc4OC)[nH]3)c2c1` (centres unmarked) [2-(6-methoxy-2-(trifluoromethyl)-1H-benzo[d]imidazol-1-yl)-1-(7-(5-(2-methoxyquinolin-3-yl)-1H-imidazol-2-yl)-4-(pyrazin-2-ylmethyl)-1,4-diazepan-1-yl)ethan-1-one]: the 50% effective concentration (EC50) was under 100 nM.

On to `COc1ccc2nc(C(F)(F)F)n(CC(=O)N3CC[C@@H](N(C)Cc4ccn(C)n4)C[C@H]3c3ncc(-c4cc5ccccc5nc4OC)[nH]3)c2c1` [2-(6-methoxy-2-(trifluoromethyl)-1H-benzo[d]imidazol-1-yl)-1-((2S,4R)-2-(5-(2-methoxyquinolin-3-yl)-1H-imidazol-2-yl)-4-(methyl((1-methyl-1H-pyrazol-3-yl)methyl)amino)piperidin-1-yl)ethan-1-one], for which the concentration giving a half-maximal response (EC50) is under 100 nM.

`COc1ccc2nc(C(F)(F)F)n(CC(=O)N3CC[C@H](NCc4ccn(C)n4)C[C@H]3c3ncc(-c4cc5ccccc5nc4OC)[nH]3)c2c1` [2-(6-methoxy-2-(trifluoromethyl)-1H-benzo[d]imidazol-1-yl)-1-((2S,4S)-2-(5-(2-methoxyquinolin-3-yl)-1H-imidazol-2-yl)-4-(((1-methyl-1H-pyrazol-3-yl)methyl)amino)piperidin-1-yl)ethan-1-one]: the concentration for a half-maximal effect (EC50) was under 100 nM.

`O=C(Cc1c[nH]c2ccc(O)cc12)N1CCN(Cc2ccccc2)CC1c1ncc(-c2ccc3ccccc3c2)[nH]1` (centres unmarked): the EC50 lay within 1010 to 5000 nM.

Consider `COc1nc2ccccc2cc1-c1cnc(C2CN(Cc3cccnc3)CCN2C(=O)Cc2c(C)[nH]c3ccc(F)cc23)[nH]1` (centres unmarked), for which the concentration for a half-maximal effect (EC50) lay in the range of 100 to 500 nM.

In the case of `COc1ccc2nc(C(F)(F)F)n(CC(=O)N3CCCCC3c3ncc(-c4cc5ccccc5nc4OC)[nH]3)c2c1` (centres unmarked) [2-(6-methoxy-2-(trifluoromethyl)-1H-benzo[d]imidazol-1-yl)-1-(2-(5-(2-methoxyquinolin-3-yl)-1H-imidazol-2-yl)piperidin-1-yl)ethan-1-one], the 50% effective concentration (EC50) was under 100 nM.

Take `COc1ccc2nc(C)n(CC(=O)N3CCN(Cc4nncn4C)C[C@H]3c3ncc(-c4cc5ccccc5nc4OC)[nH]3)c2c1` [(S)-2-(6-methoxy-2-methyl-1H-benzo[d]imidazol-1-yl)-1-(2-(5-(2-methoxyquinolin-3-yl)-1H-imidazol-2-yl)-4-((4-methyl-4H-1,2,4-triazol-3-yl)methyl)piperazin-1-yl)ethan-1-one]: the half-maximal effective concentration (EC50) lay within 510 to 1000 nM.

Take `CN1CCN(C(=O)Cc2ccncc2)C(c2ncc(-c3ccc4ccccc4c3)[nH]2)C1` (centres unmarked): the EC50 fell in the range of 1010 to 5000 nM.

With `COc1ccc2nc(C(F)(F)F)n(CC(=O)N3CCN(Cc4nccs4)CCC3c3ncc(-c4cc5ccccc5nc4OC)[nH]3)c2c1` (centres unmarked) [2-(6-methoxy-2-(trifluoromethyl)-1H-benzo[d]imidazol-1-yl)-1-(7-(5-(2-methoxyquinolin-3-yl)-1H-imidazol-2-yl)-4-(thiazol-2-ylmethyl)-1,4-diazepan-1-yl)ethan-1-one], the EC50 is under 100 nM.

Consider `COc1nc2ccccc2cc1-c1cnc([C@@H]2CN(CC3CCOC3)CCN2C(=O)Cn2c(C(N)=O)nc3ccccc32)[nH]1` (some centres unmarked), for which the EC50 lay within 510 to 1000 nM.

For the compound `COc1nc2ccccc2cc1-c1cnc(C2CN([S+]([O-])C(C)C)CCN2C(=O)Cc2c(C)[nH]c3ccc(F)cc23)[nH]1` (centres unmarked) [2-(5-fluoro-2-methyl-1H-indol-3-yl)-1-(4-(isopropylsulfinyl)-2-(5-(2-methoxyquinolin-3-yl)-1H-imidazol-2-yl)piperazin-1-yl)ethan-1-one], the EC50 lay in the range of 1010 to 5000 nM.

As for `COc1ccc2nc(C)n(CC(=O)N3CC[C@H](OC)C[C@H]3c3ncc(-c4cc5ccccc5nc4OC)[nH]3)c2c1` [1-((2S,4S)-4-methoxy-2-(5-(2-methoxyquinolin-3-yl)-1H-imidazol-2-yl)piperidin-1-yl)-2-(6-methoxy-2-methyl-1H-benzo[d]imidazol-1-yl)ethan-1-one], the EC50 is under 100 nM.

For `COc1nc2ccccc2cc1-c1cnc(C2CN(S(C)(=O)=O)CCN2C(=O)Cc2ccccc2)[nH]1` (centres unmarked), the EC50 was in the range of 1010 to 5000 nM.

On to `COc1nc2ccccc2cc1-c1cnc([C@@H]2CN(Cc3noc(C)n3)CCN2C(=O)Cn2c(C(F)(F)F)nc3ccccc32)[nH]1` [(S)-1-(2-(5-(2-methoxyquinolin-3-yl)-1H-imidazol-2-yl)-4-((5-methyl-1,2,4-oxadiazol-3-yl)methyl)piperazin-1-yl)-2-(2-(trifluoromethyl)-1H-benzo[d]imidazol-1-yl)ethan-1-one], for which the EC50 is under 100 nM.

On to `O=C(Cc1c[nH]c2ccc(O)cc12)N1CCN(CC2CC2)CC1c1ncc(-c2ccc3ccccc3c2)[nH]1` (centres unmarked), for which the EC50 fell in the range of 1010 to 5000 nM.

As for `COc1ccc2nc(C(F)(F)F)n(CC(=O)N3CC[C@H](NCCO)C[C@H]3c3ncc(-c4cc5ccccc5nc4OC)[nH]3)c2c1` [1-((2S,4S)-4-((2-hydroxyethyl)amino)-2-(5-(2-methoxyquinolin-3-yl)-1H-imidazol-2-yl)piperidin-1-yl)-2-(6-methoxy-2-(trifluoromethyl)-1H-benzo[d]imidazol-1-yl)ethan-1-one], the EC50 is under 100 nM.

For `COc1ccc2nc(C(F)(F)F)n(CC(=O)N3CC[C@@H](NC4CCOC4)C[C@H]3c3ncc(-c4cc5ccccc5nc4OC)[nH]3)c2c1` (some centres unmarked), the EC50 fell in the range of 100 to 500 nM.
